How the values were obtained:
Type in all cases: cell-based
[1] = target: T1, ATR (Homo sapiens, UniProt Q13535); assay: ATR cellular potency assay (pChk1 Ser345 in HT29 cells after 4NQO); settings: pChk1 (Ser 345); Table 2; read-out: Assay b) ATR Cell IC50
T1 construct: endogenous in cells; host or cells: HT29 cells (ECACC #85061109)
Protocol: (§1) The following assays were used to measure the effects of the compounds of the present invention: a) ATM cellular potency assay; b) PI3K cellular potency assay; c) mTOR cellular potency assay; d) ATR cellular potency assay. During the description of the assays, generally: • i. […] IC50 values were calculated using a smart fitting model in Genedata.
ATR is a PI3-kinase-related kinase which phosphorylates multiple substrates on serine or threonine residues in response to DNA damage during or replication blocks. Chk1, a downstream protein kinase of ATR, plays a key role in DNA damage checkpoint control. Activation of Chk1 involves phosphorylation of Ser317 and Ser345 (the latter regarded as the preferential target for phosphorylation/activation by ATR).
The following morning compound of Formula (I) in 100% DMSO were added to assay plates by acoustic dispensing. After 1 h incubation at 37° C. and 5% CO2, 40 nl of 3 mM 4NQO in 100% DMSO was added to all wells by acoustic dispensing, except minimum control wells which were left untreated with 4NQO to generate a null response control. Plates were returned to the incubator for a further 1 h. Then cells were fixed by adding 20 μl of 3.7% formaldehyde in PBS solution and incubating for 20 mins at r.t. Then […] of 0.1% Triton X100 in PBS was added and incubated for 10 minutes at r.t., to permeabalise cells. Then the plates were washed once with […] PBS, using a Biotek EL405 plate washer.
After 2 h incubation at r.t., the plates were washed three times with […] PBS, using a Biotek EL405 plate washer, and plates were then sealed with black plate seals until read. Plates were read using an ArrayScan VTI instrument, using an XF53 filter with 10× objective.

[2] = target: T2, ATM (Homo sapiens, UniProt Q13315); assay: ATM cellular potency assay (pATM Ser1981 in irradiated HT29 cells); settings: 1 h compound, X-ray irradiation, pATM (Ser1981); Table 2; read-out: Assay a) ATM Cell IC50
T2 construct: endogenous in cells; host or cells: HT29 cells (ECACC #85061109)
Protocol: as §1
Most ATM molecules in the cell are rapidly phosphorylated on this site after doses of radiation as low as 0.5 Gy, and binding of a phosphospecific antibody is detectable after the introduction of only a few DNA double-strand breaks in the cell.
The rationale of the pATM assay is to identify inhibitors of ATM in cells. HT29 cells are incubated with test compounds for 1 h prior to X-ray-irradiation. 1 h later the cells are fixed and stained for pATM (Ser1981). The fluorescence is read on the arrayscan imaging platform.
The following morning compounds of Formula (I) in 100% DMSO were added to assay plates by acoustic dispensing. After 1 h incubation at 37° C. and 5% CO2, plates (up to 6 at a time) were irradiated using the X-RAD 320 instrument (PXi) with equivalent to 600 cGy. Plates were returned to the incubator for a further 1 h. Then cells were fixed by adding 20 μl of 3.7% formaldehyde in PBS solution and incubating for 20 minutes at r.t. before being washed with 50μl/well PBS, using a Biotek EL405 plate washer. Then 20 μl of 0.1% Triton X100 in PBS was added and incubated for 20 minutes at r.t., to permeabalise cells. Then the plates were washed once with 50 μl/well PBS, using a Biotek EL405 plate washer.
After 1 h incubation at r.t., the plates were washed three times with 50 μl/well PBS, using a Biotek EL405 plate washer, and plates were sealed and kept in PBS at 4° C. until read. Plates were read using an ArrayScan VTI instrument, using an XF53 filter with 10× objective.

[3] = target: T3, mTOR (Homo sapiens, UniProt P42345); assay: mTOR cellular potency assay (phospho-AKT Ser473 in MDA-MB-468 cells); settings: MDA-MB-468 cells, 2 h, phospho-AKT Ser473; Table 2; read-out: Assay d) mTOR Cell IC50
T3 construct: phosphorylation of the Akt protein at Ser473 (AKT lies downstream of PI3Kα in the signal transduction pathway) in the MDA-MB-468 cells; endogenous in cells; host or cells: MDA-MB-468 cells (ATCC HTB 132)
Text: The following assays were used to measure the effects of the compounds of the present invention: a) ATM cellular potency assay; b) PI3K cellular potency assay; c) mTOR cellular potency assay; d) ATR cellular potency assay. During the description of the assays, generally: • i. The following abbreviations have been used: 4NQO=4-Nitroquinoline N-oxide; Ab=Antibody; BSA=Bovine Serum Albumin; CO2=Carbon Dioxide; DMEM=Dulbecco's Modified Eagle Medium; DMSO=Dimethyl Sulphoxide; EDTA=Ethylenediaminetetraacetic Acid; EGTA=Ethylene Glycol Tetraacetic Acid; ELISA=Enzyme-linked Immunosorbent Assay; EMEM=Eagle's Minimal Essential Medium; FBS=Foetal Bovine Serum; h=H(s); HRP=Horseradish Peroxidase; i.p.=intraperitoneal; PBS=Phosphate buffered saline; PBST=Phosphate buffered saline/Tween; TRIS=Tris(Hydroxymethyl)aminomethane; MTS reagent: [3-(4,5-dimethylthiazol-2-yl)-5-(3-carboxymethoxyphenyl)-2-(4-sulfophenyl)-2H-tetrazolium, inner salt, and an electron coupling reagent (phenazine methosulfate) PMS; s.c. sub-cutaneously. • ii. IC50 values were calculated using a smart fitting model in Genedata.
This assay was used to measure mTOR inhibition in cells. The aim of the phospho-AKT cell based mechanism of action assay using the Acumen Explorer is to identify inhibitors of either PI3Kα or mTOR-Rictor (Rapamycin insensitive companion of mTOR). This is measured by any decrease in the phosphorylation of the Akt protein at Ser473 (AKT lies downstream of PI3Kα in the signal transduction pathway) in the MDA-MB-468 cells following treatment with compound.
MDA-MB-468 cells (human breast adenocarcinoma #ATCC HTB 132) were seeded at 1500 cells/well in 40 μl of DMEM containing 10% FBS and 1% glutamine into Greiner 384 well black flat-bottomed plates. Cell plates were incubated for 18 h in a 37° C. incubator before dosing with compounds of Formula (I) in 100% DMSO using acoustic dispensing. Compounds were dosed in a 12 point concentration range into a randomised plate map. Control wells were generated either by dosing of 100% DMSO (max signal) or addition of a reference compound (a PI3K-62 inhibitor) that completely eliminated the pAKT signal (min control). Plates were incubated at 37° C. for 2 h; cells were then fixed by the addition of […] of a 3.7% formaldehyde solution. After 30 minutes the plates were washed with PBS using a Tecan PW384 plate washer. Wells were blocked and cells permeabilised with the addition of 40 μl of PBS containing 0.5% Tween20 and 1% Marvel™ (dried milk powder) and incubated for 60 minutes at r.t. The plates were washed with PBS containing 0.5% (v/v) Tween20 and 20 μl rabbit anti-phospho AKT Ser473 (Cell Signalling Technologies, #3787) in same PBS-Tween+1% MarvelTM was added and incubated overnight at 4° C.
Plates were washed 3 times with PBS+0.05% Tween 20 using a Tecan PW384. 20 μl of secondary antibody Alexa Fluor 488 anti-Rabbit (Molecular Probes, # A11008) diluted in PBS+0.05% Tween20 containing 1% Marvel™ was added to each well and incubated for 1 h at r.t. Plates were washed three times as before then 20 μl PBS added to each well and plates sealed with a black plate sealer.
The plates were read on an Acumen plate reader as soon as possible, measuring green fluorescence after excitation with 488 nm laser. Using this system IC50 values were generated and quality of plates was determined by control wells. Reference compounds were run each time to monitor assay performance.

[4] = target: PI3Kα (Homo sapiens, UniProt P42336); assay: PI3K cellular potency assay (phospho-Akt T308 in BT474 cells, ELISA); settings: 2 h, phospho-Akt (T308); Table 2; read-out: Assay c) PI3Kα Cell IC50
Protocol: as §1
This assay was used to measure PI3K-α inhibition in cells. PDK1 was identified as the upstream activation loop kinase of protein kinase B (Akt1), which is essential for the activation of PKB. Activation of the lipid kinase phosphoinositide 3 kinase (PI3K) is critical for the activation of PKB by PDK1.
Following ligand stimulation of receptor tyrosine kinases, PI3K is activated, which converts PIP2 to PIP3, which is bound by the PH domain of PDK1 resulting in recruitment of PDK1 to the plasma membrane where it phosphorylates AKT at Thr308 in the activation loop.
The aim of this cell-based mode of action assay is to identify compounds that inhibit PDK activity or recruitment of PDK1 to membrane by inhibiting PI3K activity. Phosphorylation of phospho-Akt (T308) in BT474c cells following treatment with compounds for 2 h is a direct measure of PDK1 and indirect measure of PI3K activity.
The following morning compounds in 100% DMSO were added to assay plates by acoustic dispensing.
Plates were incubated over night at 4° C. The next day the plates were washed with PBS buffer containing 0.05% Tween 20 and further incubated with a mouse monoclonal anti-phospho AKT T308 for 2 h. Plates were washed again as above before addition of a horse anti-mouse-HRP conjugated secondary antibody. […] The developed fluorescent product was stopped after 60 minutes by addition of Stop solution to the wells.

T1 sequence (Q13535 whole entry): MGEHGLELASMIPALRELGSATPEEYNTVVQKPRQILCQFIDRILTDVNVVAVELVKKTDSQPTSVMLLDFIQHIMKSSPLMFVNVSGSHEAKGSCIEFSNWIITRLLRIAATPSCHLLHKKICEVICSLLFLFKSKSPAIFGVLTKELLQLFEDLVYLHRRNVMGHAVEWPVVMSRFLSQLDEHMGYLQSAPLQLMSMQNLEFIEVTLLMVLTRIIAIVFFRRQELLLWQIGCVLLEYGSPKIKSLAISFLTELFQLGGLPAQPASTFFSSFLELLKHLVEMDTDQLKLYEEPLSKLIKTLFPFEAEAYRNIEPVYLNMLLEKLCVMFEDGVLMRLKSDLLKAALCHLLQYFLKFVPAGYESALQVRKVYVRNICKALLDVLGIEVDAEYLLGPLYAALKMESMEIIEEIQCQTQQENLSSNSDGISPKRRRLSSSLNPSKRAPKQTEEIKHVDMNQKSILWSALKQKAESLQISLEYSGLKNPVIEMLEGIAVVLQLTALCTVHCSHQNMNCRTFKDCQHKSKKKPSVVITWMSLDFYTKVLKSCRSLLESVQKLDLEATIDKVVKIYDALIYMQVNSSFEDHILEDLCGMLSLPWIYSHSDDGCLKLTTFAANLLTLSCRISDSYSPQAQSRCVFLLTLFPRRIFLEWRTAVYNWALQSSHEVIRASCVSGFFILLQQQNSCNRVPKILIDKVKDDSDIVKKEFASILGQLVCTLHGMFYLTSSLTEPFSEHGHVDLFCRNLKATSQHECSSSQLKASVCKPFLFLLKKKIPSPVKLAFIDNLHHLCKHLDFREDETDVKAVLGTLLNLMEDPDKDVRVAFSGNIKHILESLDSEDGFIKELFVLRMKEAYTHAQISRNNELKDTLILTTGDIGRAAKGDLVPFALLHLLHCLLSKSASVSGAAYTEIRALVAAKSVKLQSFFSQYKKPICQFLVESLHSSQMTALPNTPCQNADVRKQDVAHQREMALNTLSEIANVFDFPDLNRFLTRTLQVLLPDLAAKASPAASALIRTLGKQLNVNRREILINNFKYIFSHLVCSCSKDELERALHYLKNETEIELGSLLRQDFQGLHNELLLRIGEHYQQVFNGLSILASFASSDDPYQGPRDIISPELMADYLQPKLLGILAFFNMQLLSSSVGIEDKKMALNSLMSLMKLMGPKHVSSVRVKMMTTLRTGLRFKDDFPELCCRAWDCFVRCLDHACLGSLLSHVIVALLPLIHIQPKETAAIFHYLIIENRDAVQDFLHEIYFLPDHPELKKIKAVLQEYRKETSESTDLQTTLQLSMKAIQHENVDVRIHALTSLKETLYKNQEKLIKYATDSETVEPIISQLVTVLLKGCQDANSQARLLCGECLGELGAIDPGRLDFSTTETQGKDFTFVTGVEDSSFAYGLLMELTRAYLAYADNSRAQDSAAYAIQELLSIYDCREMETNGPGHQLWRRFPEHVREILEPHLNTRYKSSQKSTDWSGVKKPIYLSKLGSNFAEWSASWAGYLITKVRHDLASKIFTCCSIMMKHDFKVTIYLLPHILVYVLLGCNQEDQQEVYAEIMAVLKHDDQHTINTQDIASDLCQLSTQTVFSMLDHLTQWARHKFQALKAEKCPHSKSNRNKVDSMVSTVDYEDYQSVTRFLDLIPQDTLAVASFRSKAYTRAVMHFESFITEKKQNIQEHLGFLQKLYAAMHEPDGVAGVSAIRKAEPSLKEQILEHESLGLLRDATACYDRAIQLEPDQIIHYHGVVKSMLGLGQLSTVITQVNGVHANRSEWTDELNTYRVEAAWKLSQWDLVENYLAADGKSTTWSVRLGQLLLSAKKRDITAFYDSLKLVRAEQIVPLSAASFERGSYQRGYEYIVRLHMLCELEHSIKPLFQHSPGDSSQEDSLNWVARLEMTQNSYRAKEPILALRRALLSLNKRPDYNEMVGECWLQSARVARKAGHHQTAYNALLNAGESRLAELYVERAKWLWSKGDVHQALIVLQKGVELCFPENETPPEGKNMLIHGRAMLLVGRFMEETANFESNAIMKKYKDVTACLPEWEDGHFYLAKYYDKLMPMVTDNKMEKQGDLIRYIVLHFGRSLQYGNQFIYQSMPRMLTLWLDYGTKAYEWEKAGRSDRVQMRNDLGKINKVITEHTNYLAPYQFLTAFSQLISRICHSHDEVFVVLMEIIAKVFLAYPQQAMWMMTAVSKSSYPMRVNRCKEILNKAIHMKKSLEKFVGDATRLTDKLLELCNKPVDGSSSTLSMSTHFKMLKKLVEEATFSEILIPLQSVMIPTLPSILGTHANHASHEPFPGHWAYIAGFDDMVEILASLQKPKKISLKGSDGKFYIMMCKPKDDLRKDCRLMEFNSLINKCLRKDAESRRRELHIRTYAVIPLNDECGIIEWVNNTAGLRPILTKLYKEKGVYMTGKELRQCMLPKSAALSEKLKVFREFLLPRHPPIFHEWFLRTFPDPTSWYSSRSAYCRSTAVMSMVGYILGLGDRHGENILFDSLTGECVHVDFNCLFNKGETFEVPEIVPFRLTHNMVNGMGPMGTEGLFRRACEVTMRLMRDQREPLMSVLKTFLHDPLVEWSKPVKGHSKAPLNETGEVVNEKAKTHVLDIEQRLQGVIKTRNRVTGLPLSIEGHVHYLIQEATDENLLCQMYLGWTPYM
T1 sequence (Q8WXE1 whole entry partner): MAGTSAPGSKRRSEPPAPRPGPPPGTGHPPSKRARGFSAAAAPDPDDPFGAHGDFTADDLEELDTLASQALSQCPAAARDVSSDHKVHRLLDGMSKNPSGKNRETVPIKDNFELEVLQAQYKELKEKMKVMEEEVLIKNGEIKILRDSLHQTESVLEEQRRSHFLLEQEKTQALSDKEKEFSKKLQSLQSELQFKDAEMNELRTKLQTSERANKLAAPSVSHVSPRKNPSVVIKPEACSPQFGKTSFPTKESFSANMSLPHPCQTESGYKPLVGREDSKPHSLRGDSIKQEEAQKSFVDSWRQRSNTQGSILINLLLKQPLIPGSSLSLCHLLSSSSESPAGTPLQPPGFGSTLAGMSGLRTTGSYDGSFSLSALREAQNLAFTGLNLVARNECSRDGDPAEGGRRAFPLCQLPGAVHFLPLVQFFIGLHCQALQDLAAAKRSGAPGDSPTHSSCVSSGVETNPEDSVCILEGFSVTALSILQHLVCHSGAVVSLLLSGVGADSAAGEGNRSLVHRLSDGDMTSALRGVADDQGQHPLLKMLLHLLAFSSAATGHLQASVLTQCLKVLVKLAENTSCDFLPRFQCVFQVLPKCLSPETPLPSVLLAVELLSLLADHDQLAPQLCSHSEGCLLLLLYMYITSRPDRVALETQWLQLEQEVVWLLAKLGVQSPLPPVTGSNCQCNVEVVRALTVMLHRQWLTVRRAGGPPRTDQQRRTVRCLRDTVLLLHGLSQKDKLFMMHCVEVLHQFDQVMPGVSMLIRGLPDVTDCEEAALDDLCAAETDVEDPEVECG

| Structure (SMILES) | IC50 [1] | IC50 [2] | IC50 [3] | IC50 [4] |
| --- | --- | --- | --- | --- |
| CN(C)C1CCN(c2ccc(-c3ccc4ncc5c(c4c3)n([C@@H]3CCCOC3)c(=O)n5C)cn2)CC1 [Example 34, 8-[6-[4-(dimethylamino)-1-piperidyl]-3-pyridyl]-3-methyl-1-[(3R)-tetrahydropyran-3-yl]imidazo[4,5-c]quinolin-2-one] | > 30000 nM | 0.395 nM | 2000 nM |  |
| CC(C)n1c(=O)n(C)c2cnc3ccc(-c4ccc(N5CC(N(C)C)C5)nc4)cc3c21 [Example 4, 8-[6-[3-(dimethylamino)azetidin-1-yl]-3-pyridyl]-1-isopropyl-3-methyl-imidazo[4,5-c]quinolin-2-one] |  |  |  | 243 nM |
| CC(C)n1c(=O)n(C)c2cnc3ccc(-c4ccc(N5CC[C@@H](N(C)C)C5)nc4)cc3c21 [Example 1, 8-[6-[(3R)-3-(Dimethylamino)pyrrolidin-1-yl]-3-pyridyl]-1-isopropyl-3-methyl-imidazo[4,5-c]quinolin-2-one] |  |  |  | 470 nM |
| CC(C)n1c(=O)n(C)c2cnc3cc(F)c(-c4ccc(N5CCC(N(C)C)CC5)nc4)cc3c21 [Example 3, 8-[6-[4-(dimethylamino)-1-piperidyl]-3-pyridyl]-7-fluoro-1-isopropyl-3-methyl-imidazo[4,5-c]quinolin-2-one] | > 30000 nM |  |  | 19300 nM |
| CN(C)C1CCN(c2ccc(-c3cc4c(cc3F)ncc3c4n([C@@H]4CCCOC4)c(=O)n3C)cn2)CC1 [Example 40, 8-[6-[4-(dimethylamino)-1-piperidyl]-3-pyridyl]-7-fluoro-3-methyl-1-[(3R)-tetrahydropyran-3-yl]imidazo[4,5-c]quinolin-2-one] | > 30000 nM | 3.24 nM | 22100 nM |  |
| CO[C@H]1CCC[C@H](n2c(=O)n(C)c3cnc4ccc(-c5ccc(N6CCC(N(C)C)CC6)nc5)cc4c32)C1 (single isomer, unassigned) [Example 54, 8-[6-[4-(dimethylamino)-1-piperidyl]-3-pyridyl]-1-[trans-3-methoxycyclohexyl]-3-methyl-imidazo[4,5-c]quinolin-2-one] | > 25600 nM | 0.061 nM |  |  |
| CN(C)C1CCN(c2ccc(-c3ccc4ncc5c(c4c3)n([C@H]3CCCOC3)c(=O)n5C)cn2)CC1 [Example 35, 8-[6-[4-(dimethylamino)-1-piperidyl]-3-pyridyl]-3-methyl-1[(3S)-tetrahydropyran-3-yl]imidazo[4,5-c]quinolin-2-one] | > 30000 nM | 1.4 nM | 16500 nM |  |
| CO[C@H]1C[C@@H](n2c(=O)n(C)c3cnc4cc(F)c(-c5ccc(N6CC[C@@H](N(C)C)C6)nc5)cc4c32)C1 [Example 6, 8-[6-[(3R)-3-(Dimethylamino)pyrrolidin-1-yl]-3-pyridyl]-7-fluoro-1-(cis-3-methoxycyclobutyl)-3-methyl-imidazo[4,5-c]quinolin-2-one] | > 30000 nM | 1.7 nM |  |  |
| CO[C@H]1CC[C@H](n2c(=O)n(C)c3cnc4ccc(-c5ccc(N6CCC(N(C)C)CC6)nc5)cc4c32)C1 (single isomer, unassigned) [Example 33, 8-[6-[4-(dimethylamino)-1-piperidyl]-3-pyridyl]-1-[trans-3-methoxycyclopentyl]-3-methyl-imidazo[4,5-c]quinolin-2-one] | > 25700 nM | 0.332 nM |  | 1090 nM |
| CNC1CCN(c2ccc(-c3ccc4ncc5c(c4c3)n([C@H]3CCCOC3)c(=O)n5C)cn2)CC1 [Example 59, 3-methyl-8-[6-[4-(methylamino)-1-piperidyl]-3-pyridyl]-1-[(3S)-tetrahydropyran-3-yl]imidazo[4,5-c]quinolin-2-one] | > 30000 nM | 1.38 nM |  |  |
| CO[C@H]1C[C@@H](n2c(=O)n(C)c3cnc4cc(F)c(-c5ccc(N6CC[C@H](N(C)C)C6)nc5)cc4c32)C1 [Example 21] | > 30000 nM | 25.8 nM |  |  |

From patent US20180280377A1, “Imidazo[4,5-c]quinolin-2-one Compounds and Their Use in Treating Cancer” (ASTRAZENECA AB, priority 2015, published 2018)
